From patent US9012431B2, “Boron-containing small molecules as anti-inflammatory agents” (Anacor Pharmaceuticals, Inc., priority 2008, dated 2015)
Like-named read-outs stand apart in the source and are kept apart here.

Columns and labels:
[1] = system: IL-2; experiment: Cytokine assay, IL-2 release from PBMC; type: cell-based; details: human PBMC, 20 ug/mL PHA, supernatant at 24 hours
Outline: (§1)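 Using previously frozen human PBMC resuspended in medium of RPMI 1640 supplemented with 10% FBS, test article at 10, 1, 0.1 and 0.01 μM was evaluated in triplicate; DMSO stock was 10 mM.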

[2] = system: IFN-γ secretion from PBMCs; experiment: IFN-γ secretion from PBMCs stimulated with PHA; type: cell-based, human; details: PBMC
Text: (§2) Compounds were screened by a biochemical assay against PDE4 enzyme and cell-based cytokine release assays using PBMCs stimulated by LPS or phytohemagglutinin (PHA).

[3] = system: IL-1β production by human PBMCs; experiment: IL-1β production by LPS- or PHA-stimulated PBMCs; type: cell-based; details: PBMC; LPS- and PHA-induced cytokine production by human PBMCs; read-out: IC50 IL-1β (pro-inflammatory cytokines)
[4] = system: IL-5; experiment: Cytokine assay, IL-5 release from PBMC; type: cell-based; details: human PBMC, 20 ug/mL PHA, supernatant at 48 hours
Outline: as §1

[5] = system: TNF-α; experiment: Cytokine assay, TNF-α release from PBMC; type: cell-based; details: Homo sapiens, PBMC, 24 h, 1 μg/mL LPS, supernatant at 24 hours
Outline: as §1

[6] = system: IL-2 secretion from PBMCs; experiment: IL-2 secretion from PBMCs stimulated with PHA; type: cell-based, human; details: PBMC
Text: as §2

[7] = system: IL-5 production by human PBMCs; experiment: IL-5 production by LPS- or PHA-stimulated PBMCs; type: cell-based; details: PBMC; LPS- and PHA-induced cytokine production by human PBMCs; read-out: IC50 IL-5 (Th2 cytokines)
[8] = system: IFN-γ; experiment: Cytokine assay, IFN-γ release from PBMC; type: cell-based; details: human PBMC, 20 ug/mL PHA, supernatant at 24 hours
Outline: as §1

[9] = system: TNF-α secretion from peripheral blood mononuclear cells (PBMCs); experiment: TNF-α secretion from PBMCs stimulated by LPS; type: cell-based, human; details: PBMC
Text: as §2

[10] = system: IL-10 production by human PBMCs; experiment: IL-10 production by LPS- or PHA-stimulated PBMCs; type: cell-based; details: PBMC; LPS- and PHA-induced cytokine production by human PBMCs; read-out: IC50 IL-10 (Th2 cytokines)
[11] = system: IL-10; experiment: Cytokine assay, IL-10 release from PBMC; type: cell-based; details: human PBMC, 20 ug/mL PHA, supernatant at 48 hours
Outline: as §1

[12] = molecular target: T1, PDE7A1 (Homo sapiens, UniProt Q13946); experiment: PDE7 inhibition; type: biochemical; details: standard: BRL-50481; read-out: IC50 PDE7A1
T1 construct: made in house; host or cells: baculoviral expression system

[13] = system: T2, PDE4 partially purified from human U-937 myeloid leukemia cells; experiment: PDE4 Assay (enzyme from U-937 cells, [3H]cAMP); type: biochemical; details: PDE4 from U-937 cells, Tris buffer pH 7.5, 20 minutes at 25° C.
T2 construct: PDE4 partially purified from human U-937 myeloid leukemia cells was used

[14] = system: T3, PDE3 Cat; experiment: PDE3 inhibition; type: biochemical; details: standard: Cilostazol
T3 construct: Recombinant human PDE enzymes were expressed in a baculoviral system.; PDE isoforms tested include

[15] = molecular target: T4, PDE1A3 (Homo sapiens, UniProt P54750); experiment: PDE1 inhibition; type: biochemical; details: standard: 8-methoxymethyl-IBMX
T4 construct: made in house; host or cells: baculoviral expression system

[16] = system: BALB/c male mice; experiment: Oxazolone Induced Mouse Ear Edema Model; type: in vivo
Method: 2. In Vivo Anti-Inflammation Activity in Oxazolone Induced Mouse Ear Edema Model
Groups of 5 BALB/c male mice weighing 23±2 g were used. The preshaved abdomens of test animals were sensitized by application of 100 μl, of 1.5% oxazolone solution dissolved in acetone. Seven days after the initial sensitization, test substances, as well as vehicle (acetone:ethanol/1:1, 20 μL/ear) were each administered topically to the anterior and posterior surfaces of the right ear 30 minutes before, and 15 minutes after, challenge by a second application of oxazolone (1% in acetone, […]) via topical route. As a positive control, indomethacin (0.3 mg/ear×2) was administered topically using the same treatment regime as for the test compounds. Twenty-four hours after the second application of oxazolone, the ear thickness of each mouse was measured with a Dyer model micrometer gauge. A 30 percent or more inhibition in ear swelling relative to the vehicle control was considered significant and indicated possible anti-inflammatory activity.

[17] = system: CD-1 (Crl.) derived male mice; experiment: Phorbol Ester Induced Mouse Ear Edema Model; type: in vivo; details: topical, 6 h; for inhibition in vivo at 1 mg: 1 mg/ear × 2 topical
Outline: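 Test compounds in acetone:ethanol 1:1 were applied topically to both ears 30 min before and 15 min after PMA challenge; dexamethasone positive control followed the same schedule. Ear thickness was measured by micrometer 6 h after PMA, and percent inhibition was calculated from ear-thickness increase versus vehicle controls.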

[18] = system: PMA induced ear edema; experiment: PMA induced ear edema (acute skin irritation model); type: in vivo; details: for inhibition of PMA induced ear edema: acetone/ethanol vehicle, 5% C27, 15% dexamethasone, p<0.01
[19] = molecular target: hERG-channel (Homo sapiens, UniProt Q12809); experiment: hERG-channel block; type: biochemical; details: in vitro screening
[20] = system: p450 enzyme; experiment: p450 enzyme inhibition screen; type: in vitro ADME; details: in vitro screening
[21] = system: HepG2; experiment: Cytotoxicity against HepG2 cell line; type: cell-based
[22] = system: L929; experiment: Cytotoxicity against L929 cell line; type: cell-based
[23] = system: oxazolone induced ear swelling; experiment: Oxazolone induced ear swelling (allergic contact dermatitis model); type: in vivo; details: topical
[24] = Dermal application on the Göttingen minipig (plasma level, dermal irritation); type: in vivo; details: Göttingen, minipig, plasma, topical, 5 % ointment or cream over 15% body surface area; dermal 5% C27 ointment or cream over 15% body surface area; LLOQ=0.01 μg/ml; read-out: plasma levels of the compound
[25] = system: Göttingen minipig; experiment: as above; type: in vivo; details: 5% C27 ointment or cream, after 24 hours of exposure
[26] = in vivo; details: shrew
[27] = system: T5, phosphodiesterase 4 (PDE4) enzyme derived from human U937 cells; experiment: PDE4 enzyme activity (enzyme derived from human U937 cells); type: biochemical; details: biochemical assay, PDE4 enzyme derived from human U937 cells; read-out: PDE4 IC50
T5 construct: PDE4 IC50; other: biochemical assay, PDE4 enzyme derived from human U937 cells; other: PDE4 in human U937 cells
Text: The structure-activity relationships of novel boron-containing anti-inflammatory agents was investigated.
as §2

[28] = Pharmacokinetic analysis in the rat; type: in vivo
[29] = LPS- and PHA-induced cytokine production by human PBMCs, read-out: IC50 IFNg (Th1 cytokines)
[30] = LPS- and PHA-induced cytokine production by human PBMCs, read-out: IC50 IL-2 (Th1 cytokines)
[31] = LPS- and PHA-induced cytokine production by human PBMCs, read-out: IC50 TNFα (pro-inflammatory cytokines)
[32] = vehicle not given, ear swelling 6 hours after PMA

T4 sequence (P54750 whole entry): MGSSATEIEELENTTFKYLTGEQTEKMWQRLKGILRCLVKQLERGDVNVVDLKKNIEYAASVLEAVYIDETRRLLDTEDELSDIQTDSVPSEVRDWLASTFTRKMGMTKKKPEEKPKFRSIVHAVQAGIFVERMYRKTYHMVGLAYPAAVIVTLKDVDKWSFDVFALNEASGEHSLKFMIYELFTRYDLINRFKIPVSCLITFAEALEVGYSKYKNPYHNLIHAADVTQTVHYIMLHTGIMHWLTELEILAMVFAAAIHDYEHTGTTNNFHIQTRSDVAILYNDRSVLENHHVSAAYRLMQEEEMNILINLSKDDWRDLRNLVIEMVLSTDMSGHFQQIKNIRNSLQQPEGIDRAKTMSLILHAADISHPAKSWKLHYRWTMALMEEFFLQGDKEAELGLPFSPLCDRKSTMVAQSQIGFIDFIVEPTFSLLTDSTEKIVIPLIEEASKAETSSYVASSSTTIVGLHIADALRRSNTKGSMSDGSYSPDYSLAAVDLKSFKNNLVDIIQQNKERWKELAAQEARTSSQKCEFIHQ
Sequence of hERG-channel (Q12809 whole entry): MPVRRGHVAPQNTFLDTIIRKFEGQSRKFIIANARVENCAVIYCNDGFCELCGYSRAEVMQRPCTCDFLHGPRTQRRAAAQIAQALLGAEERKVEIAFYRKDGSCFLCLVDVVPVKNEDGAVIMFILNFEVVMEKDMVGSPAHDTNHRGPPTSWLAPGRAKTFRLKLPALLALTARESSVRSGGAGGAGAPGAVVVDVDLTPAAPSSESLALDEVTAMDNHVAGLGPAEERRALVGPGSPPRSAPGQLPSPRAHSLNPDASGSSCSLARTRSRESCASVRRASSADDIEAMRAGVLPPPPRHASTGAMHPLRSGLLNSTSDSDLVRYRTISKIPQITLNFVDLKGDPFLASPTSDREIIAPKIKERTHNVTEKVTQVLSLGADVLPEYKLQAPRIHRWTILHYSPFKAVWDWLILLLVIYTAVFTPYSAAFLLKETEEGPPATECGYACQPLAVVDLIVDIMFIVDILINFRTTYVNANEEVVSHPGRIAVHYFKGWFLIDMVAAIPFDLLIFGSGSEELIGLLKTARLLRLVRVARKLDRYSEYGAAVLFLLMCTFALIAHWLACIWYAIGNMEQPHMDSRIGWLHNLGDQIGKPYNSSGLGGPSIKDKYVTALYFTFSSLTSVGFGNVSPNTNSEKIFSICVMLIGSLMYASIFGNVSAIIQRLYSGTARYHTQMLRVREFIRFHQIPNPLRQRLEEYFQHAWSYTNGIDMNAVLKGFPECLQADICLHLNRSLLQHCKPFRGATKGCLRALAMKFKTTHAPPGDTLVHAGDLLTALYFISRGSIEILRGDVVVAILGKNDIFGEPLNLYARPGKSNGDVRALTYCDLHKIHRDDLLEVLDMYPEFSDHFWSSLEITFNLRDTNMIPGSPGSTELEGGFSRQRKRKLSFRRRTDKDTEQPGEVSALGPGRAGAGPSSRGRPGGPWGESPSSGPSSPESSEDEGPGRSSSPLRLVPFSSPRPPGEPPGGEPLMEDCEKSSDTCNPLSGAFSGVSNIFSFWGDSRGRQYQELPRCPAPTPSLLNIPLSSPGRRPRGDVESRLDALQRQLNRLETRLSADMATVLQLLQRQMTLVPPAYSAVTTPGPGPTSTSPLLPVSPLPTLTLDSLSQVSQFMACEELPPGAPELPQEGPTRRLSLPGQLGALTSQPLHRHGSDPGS
T1 sequence (Q13946 whole entry): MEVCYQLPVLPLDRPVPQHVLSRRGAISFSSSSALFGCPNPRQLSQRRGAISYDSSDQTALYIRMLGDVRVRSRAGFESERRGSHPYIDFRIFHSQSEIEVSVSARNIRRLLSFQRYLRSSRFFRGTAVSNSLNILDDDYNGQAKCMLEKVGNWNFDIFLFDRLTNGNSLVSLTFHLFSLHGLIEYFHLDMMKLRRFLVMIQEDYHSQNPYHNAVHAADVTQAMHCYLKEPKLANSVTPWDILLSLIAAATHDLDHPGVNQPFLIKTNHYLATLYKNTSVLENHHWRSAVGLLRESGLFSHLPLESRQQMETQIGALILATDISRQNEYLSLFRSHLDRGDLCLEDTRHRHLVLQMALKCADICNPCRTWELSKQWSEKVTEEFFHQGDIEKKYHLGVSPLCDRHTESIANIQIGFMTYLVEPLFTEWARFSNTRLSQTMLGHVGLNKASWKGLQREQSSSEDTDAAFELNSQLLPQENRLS

## COc1ccc(C2CNC(=O)C2)cc1OC1CCCC1 (stereo not shown) [Rolipram, rolipram, reference compound]
[1]
  IC50: < 1000 nM
[2]; [29]
  IC50: < 1000 nM
[3]
  IC50: > 30 µM
[4]
  IC50: < 1000 nM
[5]
  IC50: < 1000 nM
[6]; [30]
  IC50: < 1000 nM
[7]
  IC50: < 1000 nM
[8]
  IC50: < 1000 nM
[9]; [31]
  IC50: < 1000 nM
[10]
  IC50: < 1000 nM
[11]
  IC50: < 1000 nM

## Cc1ccc([N+](=O)[O-])cc1S(=O)(=O)N(C)C [BRL-50481, reference compound]
[12]
  IC50: 1 to 10 µM

## CCOC(=O)c1ccc(Oc2ccc3c(c2)COB3O)cc1OC [D35, 4-(1-Hydroxy-1,3-dihydro-benzo[c][1,2]oxaborol-5-yloxy)-2-methoxy-benzoic acid ethyl ester]
other
  melting point: 64.9 to 65.2 °C
[1]
  IC50: < 1000 nM
[5]
  IC50: < 1000 nM
[13]
  IC50: < 1000 nM
[8]
  IC50: < 1000 nM

## O=C1CCc2cc(OCCCCc3nnnn3C3CCCCC3)ccc2N1 [Cilostazol, cilostazol, reference compound]
[14]
  IC50: 1 to 10 µM

## COCc1nc2c([nH]1)c(=O)n(C)c(=O)n2CC(C)C [8-methoxymethyl-IBMX, reference compound]
[15]
  IC50: 1 to 10 µM

## COC(=O)c1ccc(Oc2ccc3c(c2)COB3O)nc1C(=O)OC [D44, 6-(1-Hydroxy-1,3-dihydro-benzo[c][1,2]oxaborol-5-yloxy)-pyridine-2,3-dicarboxylic acid dimethyl ester]
other
  melting point: 67.5 to 69.2 °C
[1]
  IC50: < 1000 nM
[5]
  IC50: < 1000 nM
[13]
  IC50: < 1000 nM
[8]
  IC50: < 1000 nM

## CCOC(=O)c1ccc(Oc2ccc3c(c2)COB3O)nc1 [D60, Ethyl 6-(1-hydroxy-1,3-dihydrobenzo[c][1,2]oxaborol-5-yloxy)nicotinate]
[16]; 0.1 mg/ear × 2 topical, Acetone:Ethanol/1:1, ear thickness 24 hours after second oxazolone application
  inhibition in vivo at 0.1 mg: < 20%
[16]; 0.2 mg/ear × 2 topical, Acetone:Ethanol/1:1, ear thickness 24 hours after second oxazolone application
  inhibition in vivo at 0.2 mg: < 20%
[16]; 1 mg/ear × 2 topical, Acetone:Ethanol/1:1, ear thickness 24 hours after second oxazolone application
  inhibition in vivo at 1 mg: < 20%
other
  melting point: 110 to 113 °C
[1]
  IC50: < 1000 nM
[17]; 0.1 mg/ear × 2 topical, Acetone:Ethanol/1:1, ear swelling 6 hours after PMA
  inhibition in vivo at 0.1 mg: < 30%
[17]; 0.2 mg/ear × 2 topical, Acetone:Ethanol/1:1, ear swelling 6 hours after PMA
  inhibition in vivo at 0.2 mg: < 30%
[17]; Acetone:Ethanol/1:1, ear swelling 6 hours after PMA
  inhibition in vivo at 1 mg: 30 to 60%
[4]
  IC50: < 1000 nM
[5]
  IC50: < 1000 nM
[13]
  IC50: < 1000 nM
[8]
  IC50: < 1000 nM
[11]
  IC50: < 1000 nM

## C[C@@H]1C[C@H]2[C@@H]3CCC4=CC(=O)C=C[C@]4(C)[C@@]3(F)[C@@H](O)C[C@]2(C)[C@@]1(O)C(=O)CO [dexamethasone, reference compound]
[17]; [32]
  inhibition in vivo at 1 mg: 60 to 90%
[18]
  inhibition of PMA induced ear edema: 73%

## COc1ccc([C@]2(C#N)CC[C@@H](C(=O)O)CC2)cc1OC1CCCC1 [Cilomilast]
[2]; [29]
  IC50: < 1000 nM
[3]
  IC50: > 30 µM
[6]; [30]
  IC50: < 1000 nM
[7]
  IC50: < 1000 nM
[9]; [31]
  IC50: < 1000 nM
[10]
  IC50: 1000 to 10000 nM

## N#Cc1ccc(Oc2ccc3c(c2)COB3O)cc1C#N [C27, 5-(3,4-Dicyanophenoxy)-1,3-dihydro-1-hydroxy-2,1-benzoxaborole]
[19]
  hERG inhibition: no significant
[16]; topical, 24 h
  inhibition in vivo at 3 mg: 40 to 60%
[17]; [32]
  inhibition in vivo at 1 mg: 60 to 90%
[17]; 3 mg/ear × 2 topical, vehicle not given, ear swelling 6 hours after PMA
  inhibition in vivo at 3 mg: 60 to 90%
[20]
  p450 enzyme inhibition: no significant
[21]
  cytotoxicity: > 100 micro M
[22]
  cytotoxicity: > 100 micro M
[2]; Homo sapiens, PBMCs stimulated with PHA, read-out: IFN-γ secretion IC50
  IC50: 220 nM
[23]
  inhibition of oxazolone induced ear swelling: significantly inhibits
[6]; Homo sapiens, PBMCs stimulated with PHA, read-out: IL-2 secretion IC50
  IC50: 180 nM
[24]
  concentration at 24 h: < 10 ng/mL
[25]
  dermal irritation: no dermal irritation
[18]
  inhibition of PMA induced ear edema: 82%
[18]; ointment vehicle
  lowest active concentration in PMA ear edema model: 0.01%
[26]
  Cmax: 12400 ng/mL
[9]; Homo sapiens, PBMCs stimulated by LPS, read-out: TNF-α secretion IC50
  IC50: 160 nM
[27]
  IC50: 60 nM
[28]; intravenous dosing at 20 mg/kg
  mean plasma residence time: 0.64 h
[28]; plasma, oral dosing at 100 mg/kg
  bioavailability: 7%
